Test results reported in paper PMC11784096, “Synthesis, antibacterial evaluation and in silico studies of novel 2-(benzo[d]thiazol-2-yl)-N-arylacetamides and their derivatives as potential DHFR inhibitors” (BMC Chemistry, 2025).
Converted amounts (≈) assume the structure as drawn.

Assays:
[1] = tested on: P. aeruginosa; assay: Agar diffusion method, inhibition zone diameter; format: cell-based, Pseudomonas aeruginosa; details: Gram-negative
Text: (§1) The bacterial growth inhibition activity of most of the newly synthesized compounds was examined against different Gram-positive and Gram-negative strains. The Agar diffusion method was used to assess the antibacterial and antifungal activity. The Gram-negative strains were: E. coli, K. pneumonia, P. aeruginosa and A. baumannii, the Gram-positive strains were: St. aureus, St. mutans and the standard antibiotics were gentamicin, tigecycline and ampicillin.
(§2) The agar-based media plate surface was inoculated by spreading a volume of the microbial inoculum over the entire agar surface.
(§3) Using a sterile cork borer or a tip, a hole with a diameter of 6 to 8 mm was made.
(§4) Using a micropipette, (20 µL) volume of the antimicrobial agent or extract solution at the desired concentration was introduced into the well.
(§5) The inoculated plates were incubated under suitable conditions depending upon the tested microorganism. The antimicrobial agent diffused through the agar medium and inhibited the growth of the microbial strain tested.
(§6) After a suitable incubation period (16 to 48 hours) according to the optimum growth conditions, the resulting inhibition zone diameters (in mm) around the wells were measured to the nearest whole millimeter at the point at which there is a prominent reduction in growth. If growth is insufficient at the recommended times, the plates should be re-incubated and read later.

[2] = tested on: A. baumannii; assay: Agar diffusion method, inhibition zone diameter; format: cell-based, Acinetobacter baumannii; details: Gram-negative
Text: as §1, §2, §3, §4, §5, §6

[3] = tested on: A. baumannii; assay: Minimum inhibition concentration, serial dilution; format: cell-based, Acinetobacter baumannii; details: 37 °C; for MIC: Acinetobacter baumannii
Procedure: (§7) For each strain, three to five isolated colonies were selected from the fresh agar plate and transferred into a tube containing 3-4 ml of the sterile broth medium. The bacterial suspension was mixed well and incubated at 35-37 °C for 2-6 hours. […] After that, 1 mg of the tested compound (antimicrobial agent) was dissolved in 1 ml of DMSO and a two-fold serial dilution was done using a broth medium. A fixed volume of the prepared bacterial inoculum was added to each tube and incubated at 37 °C for 16-20 hours. The MIC is defined as the lowest concentration of the antimicrobial agent that inhibits visible growth of the tested isolate as observed with the unaided eye.

[4] = tested on: E. coli; assay: Agar diffusion method, inhibition zone diameter; format: cell-based, Escherichia coli; details: Gram-negative
Text: as §1, §2, §3, §4, §5, §6

[5] = tested on: K. pneumonia; assay: Minimum inhibition concentration, serial dilution; format: cell-based, Klebsiella pneumonia; details: 37 °C; for MIC: Klebsiella pneumoniae
Procedure: as §7

[6] = tested on: St. aureus; assay: Agar diffusion method, inhibition zone diameter; format: cell-based, Staphylococcus aureus; details: Gram-positive
Text: as §1, §2, §3, §4, §5, §6

[7] = tested on: P. aeruginosa; assay: Minimum inhibition concentration, serial dilution; format: cell-based, Pseudomonas aeruginosa; details: 37 °C; for MIC: Pseudomonas aeruginosa
Procedure: as §7

[8] = tested on: E. coli; assay: Minimum inhibition concentration, serial dilution; format: cell-based, Escherichia coli; details: 37 °C; for MIC: Escherichia coli
Procedure: as §7

[9] = tested on: K. pneumonia; assay: Agar diffusion method, inhibition zone diameter; format: cell-based, Klebsiella pneumonia; details: Gram-negative
Text: as §1, §2, §3, §4, §5, §6

[10] = tested on: St. mutans; assay: Agar diffusion method, inhibition zone diameter; format: cell-based; details: Gram-positive
Text: as §1, §2, §3, §4, §5, §6

[11] = tested on: St. aureus; assay: Minimum inhibition concentration, serial dilution; format: cell-based; details: Staphylococcus aureus, 37 °C
Procedure: as §7

[12] = target: dihydrofolate reductase in Escherichia coli (Escherichia coli, UniProt P0ABQ4); assay: In vitro DHFR inhibition assessment; format: biochemical
Sequence of dihydrofolate reductase in Escherichia coli (P0ABQ4 whole entry): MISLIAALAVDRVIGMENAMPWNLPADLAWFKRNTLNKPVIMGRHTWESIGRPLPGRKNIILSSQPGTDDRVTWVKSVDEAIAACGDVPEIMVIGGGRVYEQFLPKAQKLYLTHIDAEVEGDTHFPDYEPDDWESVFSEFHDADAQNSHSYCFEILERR

| MIC [5] | MIC [8] | Compound | IZD P. aeruginosa [1] | IZD A. baumannii [2] | IZD E. coli [4] | IZD St. aureus [6] | IZD K. pneumonia [9] | further results |
| --- | --- | --- | --- | --- | --- | --- | --- | --- |
|  |  | 4-(2-(Benzo[d]thiazol-2-yl)acetamido)benzoic acid [2e] | 36 ± 1 mm | 36 ± 1 mm | 35 ± 1 mm | 20 ± 1 mm | 36 ± 1 mm | MIC A. baumannii [3]: 0.125 µg/mL; MIC K. pneumonia [5]: 0.03125 µg/mL; MIC P. aeruginosa [7]: 0.03125 µg/mL; MIC E. coli [8]: 0.03125 µg/mL |
|  |  | O=C(Nc1ccccc1)C(=Cc1ccccc1)c1nc2ccccc2s1 [4a, 2-(Benzo[d]thiazol-2-yl)-N,3-diphenylacrylamide] |  |  | 11 ± 1 mm |  |  |  |
|  |  | COc1ccc(C=C(C(=O)Nc2ccccc2)c2nc3ccccc3s2)cc1 [4b, 2-(Benzo[d]thiazol-2-yl)-3-(4-methoxyphenyl)-N-phenylacrylamide] |  | 13 ± 1 mm |  |  |  |  |
| 0.125 µg/mL (≈ 0.32 µM) | 0.125 µg/mL (≈ 0.32 µM) | O=C(Nc1ccccc1)C(=Cc1ccc(Cl)cc1)c1nc2ccccc2s1 [4d, 2-(Benzo[d]thiazol-2-yl)-3-(4-chlorophenyl)-N-phenylacrylamide] | no activity | 15 ± 1 mm | 20 ± 1 mm |  | 20 ± 1 mm | MIC [3]: 0.25 µg/mL (≈ 0.64 µM) |
| 0.0312 µg/mL (≈ 0.078 µM) | 0.0625 µg/mL (≈ 0.156 µM) | COc1ccc(C=C(C(=O)Nc2ccc(C)cc2)c2nc3ccccc3s2)cc1 [4f, 2-(Benzo[d]thiazol-2-yl)-3-(4-methoxyphenyl)-N-(p-tolyl)acrylamide] | 20 ± 1 mm | 15 ± 1.1 mm | 25 ± 1.1 mm | 25 ± 1.1 mm | 25 ± 1.1 mm | IZD St. mutans [10]: 18 ± 1.1 mm; MIC K. pneumonia [5]: 0.0625 µg/mL (≈ 0.156 µM); MIC [7]: 0.125 µg/mL (≈ 0.312 µM) |
|  |  | COc1ccc(C=C(C(=O)Nc2ccc(C)cc2)c2nc3ccccc3s2)cc1OC [4g, 2-(Benzo[d]thiazol-2-yl)-3-(3,4-dimethoxyphenyl)-N-(p-tolyl)acrylamide] |  |  | 18 ± 1 mm |  |  |  |
| 0.125 µg/mL (≈ 0.32 µM) | 0.125 µg/mL (≈ 0.32 µM) | O=C(Nc1ccc(Cl)cc1)C(=Cc1ccccc1)c1nc2ccccc2s1 [4i, 2-(Benzo[d]thiazol-2-yl)-N-(4-chlorophenyl)-3-phenylacrylamide] | no activity | 15 ± 1 mm | 20 ± 1 mm | 12 ± 1 mm | 23 ± 1 mm |  |
| 0.0625 µg/mL (≈ 0.139 µM) | 0.125 µg/mL (≈ 0.277 µM) | COc1ccc(C=C(C(=O)Nc2ccc(Cl)cc2)c2nc3ccccc3s2)cc1OC [4k, 2-(Benzo[d]thiazol-2-yl)-N-(4-chlorophenyl)-3-(3,4-dimethoxyphenyl)acrylamide] | 20 ± 1 mm | 23 ± 1.1 mm | 22 ± 1.1 mm | 25 ± 1.1 mm | 25 ± 1.1 mm | MIC [3]: 0.0312 µg/mL (≈ 0.0693 µM); IZD St. mutans [10]: 18 ± 1.1 mm; MIC [7]: 0.125 µg/mL (≈ 0.277 µM); MIC [11]: 0.0625 µg/mL (≈ 0.139 µM) |
|  |  | O=C(Nc1ccc(Cl)cc1)C(=Cc1ccc(OC(=O)c2ccccc2)cc1)c1nc2ccccc2s1 [4o, 4-(2-(Benzo[d]thiazol-2-yl)-3-((4-chlorophenyl)amino)-3-oxoprop-1-en-1-yl)phenyl-benzoate] |  | 10 ± 1 mm |  |  | 13 ± 1 mm |  |
| 0.0625 µg/mL (≈ 0.125 µM) | 0.0625 µg/mL (≈ 0.125 µM) | O=C(Nc1ccccc1)C(=Cc1cn(-c2ccccc2)nc1-c1ccccc1)c1nc2ccccc2s1 [6a, 2-(Benzo[d]thiazol-2-yl)-3-(1,3-diphenyl-1H-pyrazol-4-yl)-N-phenylacrylamide] | 23 ± 1 mm |  | 20 ± 1 mm |  | 20 ± 1 mm | MIC [7]: 0.125 µg/mL (≈ 0.251 µM) |
|  |  | Cc1ccc(-c2nn(-c3ccccc3)cc2C=C(C(=O)Nc2ccccc2)c2nc3ccccc3s2)cc1 [6b, 2-(Benzo[d]thiazol-2-yl)-N-phenyl-3-(1-phenyl-3-(p-tolyl)-1H-pyrazol-4-yl)acrylamide] |  | 10 ± 1 mm |  |  | 13 ± 1 mm |  |
|  |  | O=C(Nc1ccccc1)C(=Cc1cn(-c2ccccc2)nc1-c1ccc(Cl)cc1)c1nc2ccccc2s1 [6c, 2-(Benzo[d]thiazol-2-yl)-3-(3-(4-chlorophenyl)-1-phenyl-1H-pyrazol-4-yl)-N-phenyl-acrylamide] |  | 13 ± 1 mm |  |  |  |  |
|  |  | Cc1ccc(NC(=O)C(=Cc2cn(-c3ccccc3)nc2-c2ccccc2)c2nc3ccccc3s2)cc1 [6d, 2-(Benzo[d]thiazol-2-yl)-3-(1,3-diphenyl-1H-pyrazol-4-yl)-N-(p-tolyl)acrylamide] |  | 10 ± 1 mm |  |  | 13 ± 1 mm |  |
|  |  | Cc1ccc(NC(=O)C(=Cc2cn(-c3ccccc3)nc2-c2ccc(C)cc2)c2nc3ccccc3s2)cc1 [6e, 2-(Benzo[d]thiazol-2-yl)-3-(1-phenyl-3-(p-tolyl)-1H-pyrazol-4-yl)-N-(p-tolyl)acrylamide] |  |  | 31 ± 1 mm | 29 ± 0.5 mm | 36 ± 0.8 mm |  |
|  |  | Cc1ccc(-c2nn(-c3ccccc3)cc2C=C(C(=O)Nc2ccc(Cl)cc2)c2nc3ccccc3s2)cc1 [6h, 2-(Benzo[d]thiazol-2-yl)-N-(4-chlorophenyl)-3-(1-phenyl-3-(p-tolyl)-1H-pyrazol-4-yl)acrylamide] |  | 13 ± 1 mm |  |  |  |  |
|  |  | O=C(Nc1ccc(Cl)cc1)/C(=C\c1cn(-c2ccccc2)nc1-c1ccc(Cl)cc1)c1nc2ccccc2s1 [6i] |  | 19 ± 0.5 mm | 18 ± 0.5 mm | 14 ± 1 mm |  | IZD St. mutans [10]: 15 ± 1 mm |
|  |  | N#Cc1c(-c2ccccc2)c(-c2nc3ccccc3s2)c(=O)n(-c2ccccc2)c1N [11a, 2-Amino-5-(benzo[d]thiazol-2-yl)-6-oxo-1,4-diphenyl-1,6-dihydropyridine-3-carbonitrile] |  | 19 ± 0.5 mm | 18 ± 0.5 mm | 14 ± 1 mm |  | IZD St. mutans [10]: 15 ± 1 mm |
|  |  | COc1ccc(-c2c(C#N)c(N)n(-c3ccccc3)c(=O)c2-c2nc3ccccc3s2)cc1 [11b, 2-Amino-5-(benzo[d]thiazol-2-yl)-4-(4-methoxyphenyl)-6-oxo-1-phenyl-1,6-dihydro-pyridine-3-carbonitrile] |  | 15 ± 1 mm | 19 ± 1 mm |  |  |  |
| 0.0625 µg/mL (≈ 0.135 µM) | 0.0315 µg/mL (≈ 0.0678 µM) | COc1ccc(-c2c(C#N)c(N)n(-c3ccc(C)cc3)c(=O)c2-c2nc3ccccc3s2)cc1 [11d, 2-Amino-5-(benzo[d]thiazol-2-yl)-4-(4-methoxyphenyl)-6-oxo-1-(p-tolyl)-1,6-dihydro-pyridine-3-carbonitrile] | 13 ± 1 mm | 10 ± 1 mm | 35 ± 1 mm |  | 23 ± 1 mm |  |
|  |  | COc1ccc(-c2c(C#N)c(N)n(-c3ccc(Cl)cc3)c(=O)c2-c2nc3ccccc3s2)cc1 [11f, 2-Amino-5-(benzo[d]thiazol-2-yl)-1-(4-chlorophenyl)-4-(4-methoxyphenyl)-6-oxo-1,6-dihydropyridine-3-carbonitrile] | 16 ± 1 mm | 15 ± 1.1 mm | 17 ± 1.1 mm | 20 ± 1.1 mm | 20 ± 1.1 mm | IZD St. mutans [10]: 20 ± 1.1 mm |
| 0.0625 µg/mL (≈ 0.131 µM) | 0.0312 µg/mL (≈ 0.0654 µM) | CNC(C)C1CCC(N)C(OC2C(N)CC(N)C(OC3OCC(C)(O)C(NC)C3O)C2O)O1 (stereo not drawn) [Gentamicin, reference compound] | 32 ± 0.4 mm |  | 27 ± 0.1 mm |  | 29 ± 0.5 mm | MIC [3]: 0.0312 µg/mL (≈ 0.0654 µM); MIC [7]: 0.0312 µg/mL (≈ 0.0654 µM) |
|  |  | CN(C)c1cc(NC(=O)CNC(C)(C)C)c(O)c2c1C[C@H]1C[C@H]3[C@H](N(C)C)C(O)=C(C(N)=O)C(=O)[C@@]3(O)C(O)=C1C2=O [Tigecycline, reference compound] |  | 23 ± 0.4 mm |  |  |  | MIC [3]: 0.0312 µg/mL (≈ 0.0534 µM) |

| Compound | MIC [5] | MIC [8] | IZD P. aeruginosa [1] | IZD A. baumannii [2] | IZD E. coli [4] | IZD St. aureus [6] | IZD K. pneumonia [9] | further results |
| --- | --- | --- | --- | --- | --- | --- | --- | --- |
| Cc1ccc(-n2c(N)c(C#N)c(-c3ccccc3)c(-c3nc4ccccc4s3)c2=O)cc1 [11c, 2-Amino-5-(benzo[d]thiazol-2-yl)-6-oxo-4-phenyl-1-(p-tolyl)-1,6-dihydropyridine-3-carbonitrile] | 0.0315 µg/mL (≈ 0.0725 µM) | 0.0315 µg/mL (≈ 0.0725 µM) | 35 ± 1 mm | 35 ± 1 mm | 35 ± 1 mm |  | 36 ± 1 mm | MIC [3]: 0.0315 µg/mL (≈ 0.0725 µM); MIC [7]: 0.0315 µg/mL (≈ 0.0725 µM); IC50 [12]: 15 ± 0.785 µM; inhibitory activity against DHFR relative to trimethoprim ([12]; fold of trimethoprim, in words): half |
